The record followed here is patent US10059701B2 (Merck Patent GmbH, priority 2015, dated 2018).

Structures are written as SMILES.

The target in one assay is T1, IRAK1 (Homo sapiens, UniProt P51617).
T1 construct: His-TEV-IRAK1 (194-712); His (N); TEV cleavage site (N)
Put plainly: IRAK1 enzymatic assay (ADP-Glo luminescence). The class given is biochemical. The settings on record: purified human recombinant His-TEV-IRAK1 (194-712). The protocol: IRAK1 is a human purified recombinant enzyme (His-TEV-IRAK1 (194-712))
In this assay, IRAK1 hydrolyses ATP and autophosphorylates. Measurement of IRAK-1 inhibition is performed in 384-well format based on luminescence assay (ADP-Glo™ Kinase Assay from Promega). Purified human recombinant IRAK1 (0.3 μg/ml) and serial diluted compounds in DMSO (range of concentration from 10 μM to 0.5 nM) or controls (1% DMSO) are incubated for 15 minutes at RT in assay buffer containing 50 mM Hepes pH 7.0, Fatty acid-free BSA 0.1%, Dithiothreitol (DTT) 2 mM, MgCl2 10 mM, EGTA 0.5 mM, Triton X-100 0.01%. The kinase reaction is then initiated by the addition of ATP […] After 2 hours of incubation at RT, the reaction is stopped and the unconsumed ATP depleted by the addition of ADP-Glo™ Reagent according to supplier instructions. After 40 minutes of incubation at RT, the Kinase Detection Reagent is then added to the assay plate according to supplier instructions. After 20 minutes of incubation at RT, the luminescence signal is measured with a luminometer (PerkinElmer Envision or equivalent reader).
For orientation: In ADP-Glo the light output rises with the ADP produced.

The target in another assay is T2, IRAK4 (Homo sapiens, UniProt Q9NWZ3).
T2 construct: His-TEV-IRAK4 (1-460); His (N); TEV cleavage site (N)
T2 sequence (Q9NWZ3 1-460): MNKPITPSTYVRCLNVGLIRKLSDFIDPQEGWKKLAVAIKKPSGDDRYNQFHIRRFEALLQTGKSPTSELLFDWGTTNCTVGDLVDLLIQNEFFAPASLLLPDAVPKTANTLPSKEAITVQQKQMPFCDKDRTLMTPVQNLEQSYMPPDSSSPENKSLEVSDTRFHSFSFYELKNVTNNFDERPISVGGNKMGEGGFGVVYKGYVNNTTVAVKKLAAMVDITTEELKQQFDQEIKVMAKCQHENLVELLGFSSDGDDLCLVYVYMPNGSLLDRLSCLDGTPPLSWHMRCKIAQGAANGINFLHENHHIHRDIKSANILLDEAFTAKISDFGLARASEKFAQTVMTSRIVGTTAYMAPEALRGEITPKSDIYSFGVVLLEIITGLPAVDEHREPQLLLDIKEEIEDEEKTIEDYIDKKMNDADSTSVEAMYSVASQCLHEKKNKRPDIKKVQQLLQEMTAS
Put plainly: IRAK4 enzymatic assay (ADP-Glo luminescence). The settings on record: purified human recombinant His-TEV-IRAK4 (1-460), ATP 2 μM. The class given is biochemical. The protocol: IRAK4 is a human purified recombinant enzyme (His-TEV-IRAK4 (1-460)).
In this assay, IRAK4 hydrolyses ATP, autophosphorylates and phosphorylates a Serine/Threonine generic peptidic substrate (STK: 61ST1BLC from CisBio International). Measurement of IRAK-4 inhibition is performed in 384-well format based on a luminescence assay (ADP-Glo™ Kinase Assay from Promega). Purified human recombinant IRAK4 (0.3 μg/ml) and serial diluted compounds in DMSO (range of concentration from 10 μM to 0.5 nM) or controls (1% DMSO) are incubated for 15 minutes at RT in assay buffer containing 50 mM Hepes pH 7.0, Fatty acid-free BSA 0.1%, Dithiothreitol (DTT) 2 mM, MgCl2 10 mM, EGTA 0.5 mM, Triton X-100 0.01%, MnCl2 5 mM. The kinase reaction is then initiated by the addition of ATP (2 μM) and the peptidic substrate STK1-biotin peptide (300 nM). After 2 hours of incubation at RT, the reaction is stopped and the unconsumed ATP depleted by the addition of ADP-Glo™ Reagent according to supplier instructions. After 40 minutes of incubation at RT, the Kinase Detection Reagent is then added to the assay plate according to supplier instructions. After 20 minutes of incubation at RT, the luminescence signal is measured with a plate-reading luminometer (PerkinElmer Envision or equivalent reader).

T1 sequence (P51617 194-712): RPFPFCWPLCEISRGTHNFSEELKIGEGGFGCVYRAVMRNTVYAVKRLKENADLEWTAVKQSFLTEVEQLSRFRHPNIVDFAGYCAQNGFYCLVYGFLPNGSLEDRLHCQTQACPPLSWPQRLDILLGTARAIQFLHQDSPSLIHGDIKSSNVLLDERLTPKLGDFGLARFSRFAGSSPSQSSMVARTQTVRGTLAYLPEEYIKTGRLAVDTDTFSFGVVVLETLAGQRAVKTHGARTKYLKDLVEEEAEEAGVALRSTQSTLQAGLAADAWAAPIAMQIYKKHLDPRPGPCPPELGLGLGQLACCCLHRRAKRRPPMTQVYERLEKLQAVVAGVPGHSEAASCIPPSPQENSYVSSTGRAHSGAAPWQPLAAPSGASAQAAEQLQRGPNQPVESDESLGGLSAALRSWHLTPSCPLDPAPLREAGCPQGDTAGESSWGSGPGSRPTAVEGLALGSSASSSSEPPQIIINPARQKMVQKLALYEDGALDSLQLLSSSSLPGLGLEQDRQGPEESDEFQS

A word on the IC50: it is the concentration that gives 50% inhibition. As for `CS(=O)(=O)c1cccc(C(=O)/N=c2\[nH]c3cc(N4CCOCC4=O)ccc3n2CC2(CO)CC2)c1` [Compound 13, (E)-N-(1-((1-(hydroxymethyl)cyclopropyl)methyl)-5-(3-oxomorpholino)-1H-benzo[d]imidazol-2(3H)-ylidene)-3-(methylsulfonyl)benzamide], the 50% inhibitory concentration (IC50) at IRAK1 and on IRAK4 was not above 100 nM throughout.

Regarding `O=C(/N=c1\[nH]c2cc(N3CCOCC3=O)ccc2n1CC1(CO)CC1)c1cccc(C(F)F)c1` [Compound 14, (E)-3-(difluoromethyl)-N-(1-((1-(hydroxymethyl)cyclopropyl)methyl)-5-(3-oxomorpholino)-1H-benzo[d]imidazol-2(3H)-ylidene)benzamide], the concentration for half-maximal inhibition (IC50) on IRAK1 and on IRAK4 was not above 100 nM in each case.

For `C[C@H](CCO)n1/c(=N/C(=O)c2cccc(C(F)(F)F)c2)[nH]c2cc(N3CCOCC3=O)ccc21` [Compound 15, (R,E)-N-(1-(4-hydroxybutan-2-yl)-5-(3-oxomorpholino)-1H-benzo[d]imidazol-2(3H)-ylidene)-3-(trifluoromethyl)benzamide], the IC50 is 100 to 1000 nM on IRAK1 and not above 100 nM at IRAK4.

Regarding `C[C@@H](CCO)n1/c(=N/C(=O)c2cccc(C(F)F)c2)[nH]c2cc(N3CCOCC3=O)ccc21` [Compound 16, (S,E)-3-(difluoromethyl)-N-(1-(4-hydroxybutan-2-yl)-5-(3-oxomorpholino)-1H-benzo[d]imidazol-2(3H)-ylidene)benzamide], the IC50 was 100 to 1000 nM on IRAK1 and not above 100 nM on IRAK4.

For the molecule `O=C(/N=c1\[nH]c2cc(N3CCOCC3=O)ccc2n1CCCCO)c1cccc(C(F)(F)F)c1` [Compound 17, (E)-N-(1-(4-hydroxybutyl)-5-(3-oxomorpholino)-1H-benzo[d]imidazol-2(3H)-ylidene)-3-(trifluoromethyl)benzamide], the 50% inhibitory concentration (IC50) is 100 to 1000 nM on IRAK1 and not above 100 nM at IRAK4.

As for `N#Cc1cccc(C(=O)/N=c2\[nH]c3cc(N4CCOCC4=O)ccc3n2CCCCO)c1` [Compound 18, (E)-3-cyano-N-(1-(4-hydroxybutyl)-5-(3-oxomorpholino)-1H-benzo[d]imidazol-2(3H)-ylidene)benzamide], the figures for the IC50 at IRAK1 and on IRAK4 were 100 to 1000 nM and not above 100 nM, respectively.

With `CS(=O)(=O)c1cccc(C(=O)/N=c2\[nH]c3cc(N4CCOCC4=O)ccc3n2CCCCO)c1` [Compound 19, (E)-N-(1-(4-hydroxybutyl)-5-(3-oxomorpholino)-1H-benzo[d]imidazol-2(3H)-ylidene)-3-(methylsulfonyl)benzamide], the 50% inhibitory concentration (IC50) at IRAK1 is 100 to 1000 nM; at IRAK4 it was not above 100 nM.

Regarding `Cn1cnc2ccc(C(=O)/N=c3\[nH]c4cc(N5CCOCC5=O)ccc4n3CCCO)cc21` [Compound 20, (E)-N-(1-(3-hydroxypropyl)-5-(3-oxomorpholino)-1H-benzo[d]imidazol-2(3H)-ylidene)-1-methyl-1H-benzo[d]imidazole-6-carboxamide], the half-maximal inhibitory concentration (IC50) on IRAK1 is more than 1000 nM; on IRAK4, 100 to 1000 nM.

With `O=C(/N=c1\[nH]c2cc(N3CCOCC3=O)ccc2n1CCCO)c1cccc(CO)c1` [Compound 21, (E)-3-(hydroxymethyl)-N-(1-(3-hydroxypropyl)-5-(3-oxomorpholino)-1H-benzo[d]imidazol-2(3H)-ylidene)benzamide], the 50% inhibitory concentration (IC50) at IRAK1 is 100 to 1000 nM; at IRAK4 it was not above 100 nM.

As to `Cn1cnc2cc(C(=O)/N=c3\[nH]c4cc(N5CCOCC5=O)ccc4n3CCCO)ccc21` [Compound 22, (E)-N-(1-(3-hydroxypropyl)-5-(3-oxomorpholino)-1H-benzo[d]imidazol-2(3H)-ylidene)-1-methyl-1H-benzo[d]imidazole-5-carboxamide], the half-maximal inhibitory concentration (IC50) on IRAK1 and at IRAK4 was more than 1000 nM in each case.

For `O=C(/N=c1\[nH]c2cc(N3CCOCC3=O)ccc2n1CCCO)c1ccc2c(c1)COC2=O` [Compound 23, (E)-N-(1-(3-hydroxypropyl)-5-(3-oxomorpholino)-1H-benzo[d]imidazol-2(3H)-ylidene)-1-oxo-1,3-dihydroisobenzofuran-5-carboxamide], the figures for the 50% inhibitory concentration (IC50) at IRAK1 and at IRAK4 were more than 1000 nM and not above 100 nM, respectively.

`C[C@H](CCO)n1/c(=N/C(=O)c2cccc(S(C)(=O)=O)c2)[nH]c2cc(N3CCOCC3=O)ccc21` [Compound 24, (R,E)-N-(1-(4-hydroxybutan-2-yl)-5-(3-oxomorpholino)-1H-benzo[d]imidazol-2(3H)-ylidene)-3-(methylsulfonyl)benzamide]: the figures for the concentration for half-maximal inhibition (IC50) at IRAK1 and on IRAK4 were 100 to 1000 nM and not above 100 nM, respectively.

Turning to `O=C(/N=c1\[nH]c2cc(N3CCOCC3=O)ccc2n1CC1(CO)CC1)c1cc(F)cc(C(F)(F)F)c1` [Compound 25, (E)-3-fluoro-N-(1-((1-(hydroxymethyl)cyclopropyl)methyl)-5-(3-oxomorpholino)-1H-benzo[d]imidazol-2(3H)-ylidene)-5-(trifluoromethyl)benzamide], the IC50 on IRAK1 is 100 to 1000 nM; at IRAK4 it was not above 100 nM.

Regarding `O=C(/N=c1\[nH]c2cc(N3CCOCC3=O)ccc2n1CCCCO)c1cccc(C(F)F)c1` [Compound 26, (E)-3-(difluoromethyl)-N-(1-(4-hydroxybutyl)-5-(3-oxomorpholino)-1H-benzo[d]imidazol-2(3H)-ylidene)benzamide], the IC50 at IRAK1 and at IRAK4 was not above 100 nM in each case.

`N#Cc1cccc(C(=O)/N=c2\[nH]c3cc(N4CCOCC4=O)ccc3n2[C@H]2CC[C@H](O)CC2)c1` [Compound 27, trans-(E)-3-cyano-N-(1-(4-hydroxycyclohexyl)-5-(3-oxomorpholino)-1H-benzo[d]imidazol-2(3H)-ylidene)benzamide]: the IC50 at IRAK1 and at IRAK4 was not above 100 nM each time.

Turning to `O=C(/N=c1\[nH]c2cc(N3CCOCC3=O)ccc2n1[C@H]1CC[C@H](O)CC1)c1cccc(C(F)F)c1` [Compound 28, trans-(E)-3-(difluoromethyl)-N-(1-(4-hydroxycyclohexyl)-5-(3-oxomorpholino)-1H-benzo[d]imidazol-2(3H)-ylidene)benzamide], the IC50 at IRAK1 and at IRAK4 was not above 100 nM throughout.

In the case of `O=C(/N=c1\[nH]c2cc(N3CCCOC3=O)ccc2n1CCCO)c1cccc(C(F)F)c1` [Compound 29, (E)-3-(difluoromethyl)-N-(1-(3-hydroxypropyl)-5-(2-oxo-1,3-oxazinan-3-yl)-1H-benzo[d]imidazol-2(3H)-ylidene)benzamide], the IC50 on IRAK1 and at IRAK4 was not above 100 nM each time.

For `O=C(/N=c1\[nH]c2cc(N3CCOCC3=O)ccc2n1CCCO)c1ccccc1` [Compound 30, (E)-N-(1-(3-hydroxypropyl)-5-(3-oxomorpholino)-1H-benzo[d]imidazol-2(3H)-ylidene)benzamide], the IC50 on IRAK1 and at IRAK4 was 100 to 1000 nM each time.

As to `CS(=O)(=O)c1cccc(C(=O)/N=c2\[nH]c3cc(N4CCOCC4=O)ccc3n2[C@H]2CC[C@H](O)CC2)c1` [Compound 31, trans-(E)-N-(1-(4-hydroxycyclohexyl)-5-(3-oxomorpholino)-1H-benzo[d]imidazol-2(3H)-ylidene)-3-(methylsulfonyl)benzamide], the half-maximal inhibitory concentration (IC50) at IRAK1 and at IRAK4 was not above 100 nM each time.

As to `O=C(/N=c1\[nH]c2cc(N3CCOCC3=O)ccc2n1[C@H]1CC[C@H](O)CC1)c1cccc(C(F)(F)F)c1` [Compound 32, trans-(E)-N-(1-(4-hydroxycyclohexyl)-5-(3-oxomorpholino)-1H-benzo[d]imidazol-2(3H)-ylidene)-3-(trifluoromethyl)benzamide], the IC50 at IRAK1 is 100 to 1000 nM; on IRAK4, not above 100 nM.
